In article PMC4092373, “Cell-secreted Flavins Bound to Membrane Cytochromes Dictate Electron Transfer Reactions to Surfaces with Diverse Charge and pH” (Scientific Reports, 2014):

How the values were obtained:
MtrC = molecular target: T1, MtrC (Shewanella oneidensis, UniProt Q8EG34); experiment: whole-cell differential pulse voltammetry; assay type: cell-based; settings: rough estimate in living wild-type MR-1 monolayer biofilm; printed for FMN and OM c-Cyts collectively, assigned to MtrC by gene deletions; saturation assumed at 52 μM FMN; semiquinone form bound under
T1 construct: native outer-membrane decaheme cytochrome in intact living cells (monolayer biofilm on ITO electrode), not purified
T1 sequence (Q8EG34 entry or part of it): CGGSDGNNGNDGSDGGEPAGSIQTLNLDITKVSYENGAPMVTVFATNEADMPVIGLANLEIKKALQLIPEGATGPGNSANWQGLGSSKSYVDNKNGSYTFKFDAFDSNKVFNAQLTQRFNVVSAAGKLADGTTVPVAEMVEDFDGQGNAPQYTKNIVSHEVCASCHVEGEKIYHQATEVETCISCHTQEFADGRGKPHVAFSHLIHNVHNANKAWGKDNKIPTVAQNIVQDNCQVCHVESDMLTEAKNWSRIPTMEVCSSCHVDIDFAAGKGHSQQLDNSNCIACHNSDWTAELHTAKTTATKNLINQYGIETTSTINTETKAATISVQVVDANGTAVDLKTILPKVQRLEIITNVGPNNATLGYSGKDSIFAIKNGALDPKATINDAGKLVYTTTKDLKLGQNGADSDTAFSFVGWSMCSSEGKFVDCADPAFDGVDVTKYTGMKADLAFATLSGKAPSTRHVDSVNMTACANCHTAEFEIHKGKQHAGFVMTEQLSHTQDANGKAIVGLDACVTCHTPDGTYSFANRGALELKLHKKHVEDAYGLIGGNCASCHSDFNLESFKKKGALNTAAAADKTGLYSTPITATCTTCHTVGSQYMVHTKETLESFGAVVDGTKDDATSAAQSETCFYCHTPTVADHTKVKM

OmcA = molecular target: T2, OmcA (Shewanella oneidensis, UniProt Q8EG33); experiment: whole-cell differential pulse voltammetry; assay type: cell-based; settings: redox peak potential of bound riboflavin, no affinity constant; delta-mtrC cells, 2.0 μM RF, 10 mM lactate, 30 °C; shift lost in delta-omcA cells
T2 construct: native outer-membrane decaheme cytochrome in intact living cells (wild type and delta-mtrC strain on ITO electrode), not purified
T2 sequence (Q8EG33 entry or part of it): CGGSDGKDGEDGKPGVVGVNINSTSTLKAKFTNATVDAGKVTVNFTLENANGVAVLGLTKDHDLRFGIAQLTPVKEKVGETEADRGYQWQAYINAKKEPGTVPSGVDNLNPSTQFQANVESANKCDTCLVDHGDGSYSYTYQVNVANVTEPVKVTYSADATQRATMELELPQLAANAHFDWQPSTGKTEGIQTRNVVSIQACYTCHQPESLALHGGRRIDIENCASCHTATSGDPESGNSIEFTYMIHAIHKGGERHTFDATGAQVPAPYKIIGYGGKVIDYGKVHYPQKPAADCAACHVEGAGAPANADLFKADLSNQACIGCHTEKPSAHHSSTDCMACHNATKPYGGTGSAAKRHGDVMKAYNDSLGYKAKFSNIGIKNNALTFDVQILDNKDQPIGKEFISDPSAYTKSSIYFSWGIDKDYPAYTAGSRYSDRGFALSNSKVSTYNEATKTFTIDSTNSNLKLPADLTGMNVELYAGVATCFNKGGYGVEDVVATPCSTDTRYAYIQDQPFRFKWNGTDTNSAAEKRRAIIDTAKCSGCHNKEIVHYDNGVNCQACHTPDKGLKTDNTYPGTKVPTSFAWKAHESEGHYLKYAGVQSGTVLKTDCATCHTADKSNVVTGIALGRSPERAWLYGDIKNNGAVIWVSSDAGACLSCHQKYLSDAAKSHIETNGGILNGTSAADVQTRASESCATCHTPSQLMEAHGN

Kd (MtrC) [µM]	Ep (OmcA) [mV]	Structure (SMILES)
~10		Cc1cc2nc3c(=O)[nH]c(=O)nc-3n(C[C@H](O)[C@H](O)[C@H](O)COP(=O)(O)O)c2cc1C [FMN, flavin mononucleotide]
	−102	Cc1cc2nc3c(=O)[nH]c(=O)nc-3n(C[C@H](O)[C@H](O)[C@H](O)CO)c2cc1C [RF, riboflavin]
